# Assay results taken from paper PMC10501769 (eLife, 2023).
# Molecular target: Rv0158 (Mycobacterium tuberculosis, UniProt O53641)
# Test: biochemical
# Rv0158, sequence (O53641 entry or part of it): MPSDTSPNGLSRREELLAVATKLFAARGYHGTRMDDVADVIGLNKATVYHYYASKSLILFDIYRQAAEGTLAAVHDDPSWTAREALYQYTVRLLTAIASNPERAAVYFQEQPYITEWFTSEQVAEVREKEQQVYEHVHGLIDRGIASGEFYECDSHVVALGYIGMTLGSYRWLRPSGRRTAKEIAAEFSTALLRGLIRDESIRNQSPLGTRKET
row,SMILES,Kd [nM]
1,CCCCCCCCCCCC(=O)SCCNC(=O)CCNC(=O)[C@H](O)C(C)(C)COP(=O)(O)OP(=O)(O)OC[C@H]1O[C@@H](n2cnc3c(N)ncnc32)[C@H](O)[C@@H]1OP(=O)(O)O [C12-CoA],1100 ± 600
2,CCCCCCCCCCCCCCCC(=O)SCCNC(=O)CCNC(=O)[C@H](O)C(C)(C)COP(=O)(O)OP(=O)(O)OC[C@H]1O[C@@H](n2cnc3c(N)ncnc32)[C@H](O)[C@@H]1OP(=O)(O)O [C16-CoA],1800 ± 500
3,CCCCCCCCCCCCCCCCCC(=O)SCCNC(=O)CCNC(=O)[C@H](O)C(C)(C)COP(=O)(O)OP(=O)(O)OC[C@H]1O[C@@H](n2cnc3c(N)ncnc32)[C@H](O)[C@@H]1OP(=O)(O)O [C18-CoA],2800 ± 800
4,CCCCCCCCCC(=O)SCCNC(=O)CCNC(=O)[C@H](O)C(C)(C)COP(=O)(O)OP(=O)(O)OC[C@H]1O[C@@H](n2cnc3c(N)ncnc32)[C@H](O)[C@@H]1OP(=O)(O)O [Decanoyl-CoA],6400 ± 1200
5,CC(C)(COP(=O)(O)OP(=O)(O)OC[C@H]1O[C@@H](n2cnc3c(N)ncnc32)[C@H](O)[C@@H]1OP(=O)(O)O)[C@@H](O)C(=O)NCCC(=O)NCCSC(=O)CC(=O)O [Malonyl-CoA],2400 ± 1000
6,CC(C(=O)O)C(=O)SCCNC(=O)CCNC(=O)[C@H](O)C(C)(C)COP(=O)(O)OP(=O)(O)OC[C@H]1O[C@@H](n2cnc3c(N)ncnc32)[C@H](O)[C@@H]1OP(=O)(O)O (stereo partly drawn) [Methylmalonyl-CoA],900 ± 300
